Experimental findings from BindingDB's records for doi:10.1021/jm9707030 (Boehringer Ingelheim Pharmaceuticals, 1998) are described below.

Structures are written as SMILES.

Assay [1] concerns the target T1, Gag-Pol polyprotein [600-1027,R876K]/[600-1155] (Human immunodeficiency virus 1, UniProt P03366, R876K).
T1 construct: 600-1027; 600-1155
The experiment in a line: HIV-1 RT Assay.

In assay [2] the target is T2, Gag-Pol polyprotein [600-1027,Y780C]/[600-1155,Y780C] (Human immunodeficiency virus 1, UniProt P03366, Y780C).
T2 construct: 600-1027; 600-1155
The experiment in a line: HIV-1 RT Assay. The following applies: pH 7.8; 22 °C.

With `CCN1c2ncc(COc3cc[n+]([O-])c(C)c3)cc2C(=O)N(C)c2ccc(Cl)nc21` [2-Chloro-5,11-dihydro-11-ethyl-5-methyl-8-((4-(2-methyl-1-oxo-pyridinyl))oxy)methyl-6H-dipyrido[3,2-b:2 ,3-e][1,4]diazepin-6-one], in assay [1], 100 nM corresponded to half-maximal inhibition (IC50).

For `CCN1c2ncc(COc3ccccc3O)cc2C(=O)N(C)c2ccc(Cl)nc21` [5-chloro-2-ethyl-13-(2-hydroxyphenoxymethyl)-9-methyl-2,4,9,15-tetraazatricyclo[9.4.0.0^{3,8}]pentadeca-1(11),3,5,7,12,14-hexaen-10-one], the IC50 – broadly, the point on the concentration scale where inhibition reaches its midpoint – in assay [1] (pH 7.8, 22 °C) is 100 nM.

Regarding `CCN1c2ncc(CS(=O)(=O)c3ccccc3)cc2C(=O)N(C)c2ccc(Cl)nc21` [13-[(benzenesulfonyl)methyl]-5-chloro-2-ethyl-9-methyl-2,4,9,15-tetraazatricyclo[9.4.0.0^{3,8}]pentadeca-1(15),3(8),4,6,11,13-hexaen-10-one], in assay [1], it took 100 nM to reach half-maximal inhibition (IC50). For the compound `CCN1c2ncc(CNc3cccc(N)c3)cc2C(=O)N(C)c2ccc(Cl)nc21` [13-{[(3-aminophenyl)amino]methyl}-5-chloro-2-ethyl-9-methyl-2,4,9,15-tetraazatricyclo[9.4.0.0^{3,8}]pentadeca-1(11),3,5,7,12,14-hexaen-10-one], the IC50 in assay [2] was found to be 100 nM.
